Like-named read-outs stand apart in the source and are kept apart here.
Experiments:
[1] = tested on: Escherichia coli (ATCC 25922)
Experimental: (§1) The antibacterial and salt-resistant activity of the peptides was tested using Escherichia coli (ATCC 25922), Pseudomonas aeruginosa Migula (ATCC 27853), Acinetobacter sp. (BCRC number 14B0091, BCRC number 14B0097, and BCRC number 14B0100), and Staphylococcus aureus sp. strains (ATCC 25923, ATCC 33591, ATCC 33592, ATCC 33593, and ATCC 6538). All bacteria were obtained from the Food Industry Research and Development Institute (Hsinchu, Taiwan) and cultured in sterilized Müller-Hinton (MH) broth at 37 °C and 200 rpm for 8 h. The inoculum concentrations were determined by measuring the optical density at 600 nm (OD 600 = 1, approximately 10^8 CFU/mL) using an Ultrospec 2100 pro UV-Visible spectrophotometer (Biochrom Ltd., Cambridge, UK) after 8 h of culture.
(§2) The antibacterial activities of the peptides in Müller-Hinton (MH) broth and modified LYM broth were determined using the standard broth microdilution method as per Clinical and Laboratory Standards Institute (CLSI) guidelines. The LYM broth was prepared with specific components and adjusted to different conditions, including varying concentrations of NaCl and MgCl2, and different pH levels. To prepare the LYM broth, 5.4 mM KCl, 5.6 mM Na2HPO4, 0.5 mM MgSO4, and 1.0 mM sodium citrate were added. Additionally, 0.4 mg of ZnCl2, 2.0 mg of FeCl3·6H2O, 0.1 mg of CuSO4·5H2O, 0.1 mg of MnSO4·H2O, 0.1 mg of Na2B4O7∙10H2O, 700 mg of amino acid mixtures without tryptophan (Takara Bio Inc., San Jose, CA, USA), and 20 mg of L-tryptophan were added per liter of medium. The pH was adjusted to 7.4, and a vitamin mixture (100X, Sigma) and glucose concentration of 2% were added. For different conditions of LYM broth, NaCl concentrations of 300, 200, 150, and 50 mM, MgCl2 concentrations of 2.5, 1.5, and 0.5 mM, and pH levels of 6.5, 5.5, and 4.5 were adjusted. Bacterial strains were incubated in MH broth overnight, regrown, and diluted to a final concentration of 5 × 10^5 CFU/mL. Peptides were added to each well at final concentrations of 50, 25, 12.5, 6.25, 3.13, 1.56, and 0.78 µg/mL, and 99 µL of diluted microbes was loaded into each well of a polypropylene 96-well plate. […] The Morpheus HeatMap software (https://software.broadinstitute.org/morpheus/) was used to display MIC values on a color scale. All experiments were independently repeated three times.

[2] = tested on: S. aureus ATCC 33591
Experimental: as §1, §2

[3] = tested on: S. aureus ATCC 6538
Experimental: as §1, §2

[4] = tested on: A. baumannii 14B0097 (Acinetobacter sp., BCRC number 14B0097)
Experimental: as §1, §2

[5] = tested on: A. baumannii 14B00100 (Acinetobacter sp., BCRC number 14B0100)
Experimental: as §1, §2

[6] = tested on: A. baumannii 14B0091 (Acinetobacter sp., BCRC number 14B0091)
Experimental: as §1, §2

[7] = tested on: S. aureus ATCC 25923
Experimental: as §1, §2

[8] = tested on: S. aureus ATCC 33593
Experimental: as §1, §2

[9] = LYM broth, 0 mM NaCl, 16 h, 37 °C
[10] = LYM broth, 50 mM NaCl, 16 h, 37 °C
[11] = LYM broth, 100 mM NaCl, 16 h, 37 °C
[12] = LYM broth, 200 mM (NaCl), 16 h, 37 °C
[13] = LYM broth, 300 mM (NaCl), 16 h, 37 °C
[14] = MH broth, 5 × 10^5 CFU/mL, 16 h, 37 °C, repeated three times

Substance Ac-KWLKWLAKKKKWR-NH2 [Peptide W5K04] has an MIC [1, 9] of 6.25 µg/mL, an MIC ([1]; LYM broth, 0.5 mM MgCl2) of 12.5 µg/mL and an MIC ([1]; LYM broth, 1.5 mM MgCl2) of 12.5 µg/mL. For the same substance, the MIC ([1]; LYM broth, 2.5 mM MgCl2) was 12.5 µg/mL, the MIC [1, 10] was 25 µg/mL and the MIC [1, 11] was 50 µg/mL. It also gave an MIC [1, 12] greater than 50 µg/mL, an MIC [1, 13] greater than 50 µg/mL and an MIC ([1]; LYM broth, pH 4.5) of 6.25 µg/mL. For the same substance, the MIC ([1]; LYM broth, pH 5.5) was 3.13 µg/mL, the MIC ([1]; LYM broth, pH 6.5) was 3.13 µg/mL and the MIC [1, 14] was 25 µg/mL. For the same substance, the MIC [2, 9] was 25 µg/mL, the MIC ([2]; LYM broth, 0.5 mM MgCl2) was 25 µg/mL and the MIC ([2]; LYM broth, 1.5 mM MgCl2) was 25 µg/mL. The MIC ([2]; LYM broth, 2.5 mM MgCl2) was 50 µg/mL, the MIC [2, 10] was 50 µg/mL and the MIC [2, 11] was 50 µg/mL. The MIC [2, 12] was greater than 50 µg/mL, the MIC [2, 13] was greater than 50 µg/mL and the MIC ([2]; LYM broth, pH 4.5) was 25 µg/mL. The MIC ([2]; LYM broth, pH 5.5) was 12.5 µg/mL, the MIC ([2]; LYM broth, pH 6.5) was 12.5 µg/mL and the MIC [2, 14] was greater than 50 µg/mL. For the same substance, the MIC [3, 9] was 3.13 µg/mL, the MIC ([3]; LYM broth, 0.5 mM MgCl2) was 3.13 µg/mL and the MIC ([3]; LYM broth, 1.5 mM MgCl2) was 6.25 µg/mL. It also gave an MIC ([3]; LYM broth, 2.5 mM MgCl2) of 6.25 µg/mL, an MIC [3, 10] of 6.25 µg/mL and an MIC [3, 11] of 25 µg/mL. The MIC [3, 12] was 50 µg/mL, the MIC [3, 13] was greater than 50 µg/mL and the MIC ([3]; LYM broth, pH 4.5) was 6.25 µg/mL. The MIC ([3]; LYM broth, pH 5.5) was 6.25 µg/mL, the MIC ([3]; LYM broth, pH 6.5) was 3.13 µg/mL and the MIC [3, 14] was 25 µg/mL. For the same substance, the MIC [4, 9] was 1.56 µg/mL, the MIC ([4]; LYM broth, 0.5 mM MgCl2) was 1.56 µg/mL and the MIC ([4]; LYM broth, 1.5 mM MgCl2) was 3.13 µg/mL. The MIC ([4]; LYM broth, 2.5 mM MgCl2) was 3.13 µg/mL, the MIC [4, 10] was 3.13 µg/mL and the MIC [4, 11] was 3.13 µg/mL. It also gave an MIC [4, 12] of 12.5 µg/mL, an MIC [4, 13] of 50 µg/mL and an MIC ([4]; LYM broth, pH 4.5) of 3.13 µg/mL. The MIC ([4]; LYM broth, pH 5.5) was 1.56 µg/mL, the MIC ([4]; LYM broth, pH 6.5) was 1.56 µg/mL and the MIC [4, 14] was 12.5 µg/mL. It also gave an MIC [5, 9] of 1.56 µg/mL, an MIC ([5]; LYM broth, 0.5 mM MgCl2) of 1.56 µg/mL and an MIC ([5]; LYM broth, 1.5 mM MgCl2) of 3.13 µg/mL. It also gave an MIC ([5]; LYM broth, 2.5 mM MgCl2) of 3.13 µg/mL, an MIC [5, 10] of 1.56 µg/mL and an MIC [5, 11] of 3.13 µg/mL. For the same substance, the MIC [5, 12] was 12.5 µg/mL, the MIC [5, 13] was 25 µg/mL and the MIC ([5]; LYM broth, pH 4.5) was 1.56 µg/mL. For the same substance, the MIC ([5]; LYM broth, pH 5.5) was 1.56 µg/mL, the MIC ([5]; LYM broth, pH 6.5) was 1.56 µg/mL and the MIC [5, 14] was 12.5 µg/mL. The MIC [6, 9] was 1.56 µg/mL, the MIC ([6]; LYM broth, 0.5 mM MgCl2) was 1.56 µg/mL and the MIC ([6]; LYM broth, 1.5 mM MgCl2) was 3.13 µg/mL. For the same substance, the MIC ([6]; LYM broth, 2.5 mM MgCl2) was 3.13 µg/mL, the MIC [6, 10] was 3.13 µg/mL and the MIC [6, 11] was 3.13 µg/mL. The MIC [6, 12] was 12.5 µg/mL, the MIC [6, 13] was 50 µg/mL and the MIC ([6]; LYM broth, pH 4.5) was 3.13 µg/mL. The MIC ([6]; LYM broth, pH 5.5) was 3.13 µg/mL, the MIC ([6]; LYM broth, pH 6.5) was 1.56 µg/mL and the MIC [6, 14] was 12.5 µg/mL. For the same substance, the MIC [7, 9] was 6.25 µg/mL, the MIC ([7]; LYM broth, 0.5 mM MgCl2) was 6.25 µg/mL and the MIC ([7]; LYM broth, 1.5 mM MgCl2) was 6.25 µg/mL. It also gave an MIC ([7]; LYM broth, 2.5 mM MgCl2) of 6.25 µg/mL, an MIC [7, 10] of 12.5 µg/mL and an MIC [7, 11] of 25 µg/mL. The MIC [7, 12] was greater than 50 µg/mL, the MIC [7, 13] was greater than 50 µg/mL and the MIC ([7]; LYM broth, pH 4.5) was 12.5 µg/mL. The MIC ([7]; LYM broth, pH 5.5) was 6.25 µg/mL, the MIC ([7]; LYM broth, pH 6.5) was 3.13 µg/mL and the MIC [7, 14] was 50 µg/mL. The MIC [8, 9] was 25 µg/mL, the MIC ([8]; LYM broth, 0.5 mM MgCl2) was 25 µg/mL and the MIC ([8]; LYM broth, 1.5 mM MgCl2) was 25 µg/mL. It also gave an MIC ([8]; LYM broth, 2.5 mM MgCl2) of 25 µg/mL, an MIC [8, 10] of 25 µg/mL and an MIC [8, 11] of 50 µg/mL. The MIC [8, 12] was greater than 50 µg/mL, the MIC [8, 13] was greater than 50 µg/mL and the MIC ([8]; LYM broth, pH 4.5) was 25 µg/mL. It also gave an MIC ([8]; LYM broth, pH 5.5) of 25 µg/mL, an MIC ([8]; LYM broth, pH 6.5) of 25 µg/mL and an MIC [8, 14] greater than 50 µg/mL.
